# Tests used:
# [1] = system: Candida albicans TIMM 1623; assay: Antifungal activity test (in vivo), mouse systemic infection model; details: for T/C (%): survival time of administration group / control group x100
# Protocol: With respect to compounds I-1, I-3 and I-6 obtained in Examples 1, 3 and 6 respectively, therapeutic effects at the time of subcutaneous administration of compounds I-1, I-3 and I-6 on a mouse systemic infection model by Candida albicans TIMM 1623 were tested.
# The test was carried out using 5 animals for each of the drug administration groups and Negative control group (sterile physiological saline administration group).
# Each of compounds I-1, I-3 and I-6 was dissolved in and diluted with dimethyl sulfoxide (DMSO; Wako Pure Chemical Industries, Ltd.) and then prepared into a predetermined concentration by diluting with sterile physiological saline.
# As the control experiment, Fluconazole (FLCZ, Flanos intravenous drip solution 100 mg; TOYAMA CHEMICAL CO, LTD.) diluted to a predetermined concentration with sterile physiological saline was used.
# On the next day of the receipt of animals, body weights of mice were measured and CP (crude protein) was intraperitoneally administered at a dose of 200 mg/kg based on the individual body weight, and then they were reared for 3 days.
# Cells of C. albicans TIMM 1623 cultured overnight at 35° C. on SDA (Sabouraud dextrose agar; Eiken Chemical Co., Ltd.) plate medium were suspended in sterile physiological saline and used as the Stock solution, and a portion thereof was diluted with 10% formalin (Wako Pure Chemical Industries, Ltd.). The number of cells in the diluted liquid was counted under a biological microscope using a hemocytometer, and then an inoculum was prepared by diluting the stock solution with sterile physiological saline (about 1.5×10^5 cells/ml). By inoculating 0.2 ml of this cell suspension through caudal vein, infection was induced. In this connection, the number of viable cells in the inoculum was verified by spreading the cell suspension optionally diluted with sterile physiological saline on an SDA plate medium and then culturing at 35° C. Each of the substances to be tested, control substance or sterile physiological saline was subcutaneously administered after 2 hours of the infection and for 3 days starting on the next day of infection once a day, a total of 4 times. After measuring individual body weight on the next day of infection, CP was again administered intraperitoneally at a dose of 100 mg/kg. The number of survived mice was observed and recorded for 14 days starting on the next day of infection.
# The results were shown in Table 3 below and FIGS. 1A to 1D. In the table, the administration dose of the compounds of the present invention and the comparative compound represents a mg amount per 1 kg of a mouse weight (mg/kg).
# Significant deference was tested, by 5% for both sides of the levels of significance, in accordance with the Kaplan-Meier method Logrank test (comparison of multiple groups), on the survival time distribution of each of the substances to be tested and control substance administration groups and sterile physiological saline administration group. SAS release 8.2 (SAS Institute Japan) was used in the Kaplan-Meier method Logrank test. (T/C(%)=[survival time of administration group (integrated value)/survival time of control group (integrated value)]×100)
# [2] = system: Aspergillus fumigatus ATCC 1028; assay: Antifungal activity test (in vitro), MIC; assay type: cell-based; details: ATCC1028
# Protocol: Minimum inhibitory concentration (MIC) of each of the compounds obtained in Examples 1 to 12 was measured for respective fungi at MOS Pharm Service, by the methods described in Antimicrobial Agents and Chemotherapy, vol. 3, pp. 40-48 (1973), Antimicrobial Agents and Chemotherapy, vol. 33, pp. 215-222 (1989) and Antimicrobial Agents and Chemotherapy, vol. 38, pp. 2362-2368 (1994). The measuring conditions are shown in the following. In this case, Voriconazol was used as a comparative compound.
# Aspergillus fumigatus ATCC 1028; Cultured at 28° C. for 2 days using potato dextrose broth, and this was used as a cell suspension.
# Each of the compounds of the invention was adjusted to a concentration of 1% by weight using dimethyl sulfoxide (DMSO) and a medium similar to the respective medium used in the above-mentioned fungal culture, having a final concentration of from 0.001 to 100 μg/ml, was prepared. Each of the inoculation cell suspensions prepared by the above-mentioned methods was inoculated onto this agar plate. […] In this connection, Voriconazol was used as the comparative compound C-1.
# [3] = system: Cryptococcus neoformans ATCC 24067; assay: Antifungal activity test (in vitro), MIC; assay type: cell-based; details: ATCC24067
# Protocol: (§1) Minimum inhibitory concentration (MIC) of each of the compounds obtained in Examples 1 to 12 was measured for respective fungi at MOS Pharm Service, by the methods described in Antimicrobial Agents and Chemotherapy, vol. 3, pp. 40-48 (1973), Antimicrobial Agents and Chemotherapy, vol. 33, pp. 215-222 (1989) and Antimicrobial Agents and Chemotherapy, vol. 38, pp. 2362-2368 (1994). The measuring conditions are shown in the following. In this case, Voriconazol was used as a comparative compound. Cryptococcus neoformans ATCC 24067, Pityrosporum ovale ATCC 38593; Cultured at 37° C. for 2 day using fluid Sabouraud medium, and this was used as a cell suspension. Each of the compounds of the invention was adjusted to a concentration of 1% by weight using dimethyl sulfoxide (DMSO) and a medium similar to the respective medium used in the above-mentioned fungal culture, having a final concentration of from 0.001 to 100 μg/ml, was prepared. Each of the inoculation cell suspensions prepared by the above-mentioned methods was inoculated onto this agar plate. […] In this connection, Voriconazol was used as the comparative compound C-1.
# [4] = system: Pityrosporum ovale ATCC 38593; assay: Antifungal activity test (in vitro), MIC; assay type: cell-based; details: Malassezia furfur, ATCC38593
# Protocol: as §1
# [5] = system: Microsporum canis ATCC 36299; assay: Antifungal activity test (in vitro), MIC; assay type: cell-based; details: ATCC36299
# Protocol: as §1, with “Microsporum canis” for “Cryptococcus neoformans”, “36299;” for “24067, Pityrosporum ovale ATCC 38593;”, “30°” for “37°”, “days” for “day”
# [6] = system: Trichophyton mentagrophytes ATCC 9533; assay: Antifungal activity test (in vitro), MIC; assay type: cell-based; details: ATCC9533
# Protocol: as §1, with “Trichophyton mentagrophytes” for “Cryptococcus neoformans”, “9533;” for “24067, Pityrosporum ovale ATCC 38593;”, “28°” for “37°”, “3 days” for “2 day”
# [7] = system: Candida albicans ATCC 10231; assay: Antifungal activity test (in vitro), MIC; assay type: cell-based; details: ATCC10231
# Protocol: as §1, with “Candida albicans” for “Cryptococcus neoformans”, “10231 and” for “24067, Pityrosporum ovale”, “44858;” for “38593;”, “20 hours” for “2 day”
smiles,measurement,setting,value
"OC(Cn1cncn1)(Cn1cncn1)c1ccc(F)cc1F [FLCZ, Fluconazole, reference compound]",survival rate,"[1]; 0.1 mg/kg s.c., day 0",100
same,survival rate,"[1]; 0.1 mg/kg s.c., day 1",100
same,survival rate,"[1]; 0.1 mg/kg s.c., day 2",100
same,survival rate,"[1]; 0.1 mg/kg s.c., day 3",60
same,survival rate,"[1]; 0.1 mg/kg s.c., day 4",60
same,survival rate,"[1]; 0.1 mg/kg s.c., day 5",60
same,survival rate,"[1]; 0.1 mg/kg s.c., day 6",60
same,survival rate,"[1]; 0.1 mg/kg s.c., day 7",40
same,survival rate,"[1]; 0.1 mg/kg s.c., day 8",40
same,survival rate,"[1]; 0.1 mg/kg s.c., day 9",20
same,survival rate,"[1]; 0.1 mg/kg s.c., day 10",20
same,survival rate,"[1]; 0.1 mg/kg s.c., day 11",20
same,survival rate,"[1]; 0.1 mg/kg s.c., day 12",20
same,survival rate,"[1]; 0.1 mg/kg s.c., day 13",20
same,survival rate,"[1]; 0.1 mg/kg s.c., day 14",20
same,T/C (%),[1]; 0.1 mg/kg s.c.,119%
same,survival rate,"[1]; 0.3 mg/kg s.c., day 0",100
same,survival rate,"[1]; 0.3 mg/kg s.c., day 1",100
same,survival rate,"[1]; 0.3 mg/kg s.c., day 2",100
same,survival rate,"[1]; 0.3 mg/kg s.c., day 3",100
same,survival rate,"[1]; 0.3 mg/kg s.c., day 4",100
same,survival rate,"[1]; 0.3 mg/kg s.c., day 5",100
same,survival rate,"[1]; 0.3 mg/kg s.c., day 6",100
same,survival rate,"[1]; 0.3 mg/kg s.c., day 7",80
same,survival rate,"[1]; 0.3 mg/kg s.c., day 8",80
same,survival rate,"[1]; 0.3 mg/kg s.c., day 9",80
same,survival rate,"[1]; 0.3 mg/kg s.c., day 10",80
same,survival rate,"[1]; 0.3 mg/kg s.c., day 11",80
same,survival rate,"[1]; 0.3 mg/kg s.c., day 12",80
same,survival rate,"[1]; 0.3 mg/kg s.c., day 13",80
same,survival rate,"[1]; 0.3 mg/kg s.c., day 14",80
same,T/C (%),[1]; 0.3 mg/kg s.c.,216%
same,survival rate,"[1]; 1 mg/kg s.c., day 0",100
same,survival rate,"[1]; 1 mg/kg s.c., day 1",100
same,survival rate,"[1]; 1 mg/kg s.c., day 2",100
same,survival rate,"[1]; 1 mg/kg s.c., day 3",100
same,survival rate,"[1]; 1 mg/kg s.c., day 4",100
same,survival rate,"[1]; 1 mg/kg s.c., day 5",100
same,survival rate,"[1]; 1 mg/kg s.c., day 6",100
same,survival rate,"[1]; 1 mg/kg s.c., day 7",100
same,survival rate,"[1]; 1 mg/kg s.c., day 8",100
same,survival rate,"[1]; 1 mg/kg s.c., day 9",100
same,survival rate,"[1]; 1 mg/kg s.c., day 10",100
same,survival rate,"[1]; 1 mg/kg s.c., day 11",100
same,survival rate,"[1]; 1 mg/kg s.c., day 12",100
same,survival rate,"[1]; 1 mg/kg s.c., day 13",80
same,survival rate,"[1]; 1 mg/kg s.c., day 14",80
same,T/C (%),[1]; 1 mg/kg s.c.,235%
"C[C@@H](n1ccc(-c2ccccn2)cc1=O)[C@](O)(Cn1cncn1)c1ccc(F)cc1F [I-8, 1′-[(1R,2R)-2-(2,4-difluorophenyl)-2-hydroxy-1-methyl-3-(1,2,4-triazol-1-yl)propyl]-2,4′-bipyridin-2′-one]",MIC,[2],100 µg/mL
same,MIC,[3],0.3 µg/mL
same,MIC,[4],1 µg/mL
same,MIC,[5],10 µg/mL
same,MIC,[6],30 µg/mL
same,MIC,[7],0.1 µg/mL
